{"source": "patent US20060067990A1", "about": "(priority 2004, published 2006)", "key": {"TSST-1 [1]": {"test_system": "TSST-1", "type": "cell-based, Staphylococcus aureus"}, "[2]": {"test_system": "enzymes produced by S. aureus MN8", "test": "Breakdown of test compounds by enzymes produced by S. aureus MN8 (GC/MS and liquid chromatography of culture fluid)", "type": "in vitro ADME, Staphylococcus aureus", "conditions": "Example 7; for GC/MS: concentration of the dominant compound over time / GC/MS: dominant compound found in the sample: culture fluid at 3, 6, 9 and 24 hours", "experimental": "The test compounds, in the desired concentrations, were placed in 100 mL of a growth medium in a sterile, 500 mL Corning Fleaker (Fisher Scientific, Pittsbury, Pa.). The growth medium and inoculum were prepared as in Example 1.\nThe test compounds were added to the growth medium in the amount necessary to obtain the desired final concentration.\nEach fleaker was inoculated with the amount of inoculum determined as described above. The fleakers were capped with sterile aluminum foil and incubated at 35° C. in atmospheric air in a Lab-Line orbital water bath (available from VWR Scientific Products, McGaw Park, Ill.) at 180 rpm. Fifteen milliliter samples were removed at 3, 6, 9, and 24 hours. The optical density (595 nm) of the culture fluid was determined and the culture fluid collected at 24 hours was assayed for the number of colony forming units of S. aureus MN8 using standard plate count procedures.\nIn preparation for analysis of the integrity of the test compounds, the culture fluid was centrifuged at 3000 rpm at 2-10° C. for 15 minutes. The supernatant was filter sterilized through an AUTOVIAL 5 syringeless filter, […] pore size (available from Whatman, Inc., Clifton, N.J.). The resulting fluid was frozen at −70° C. in a FISHERBRAND (12 mm×75 mm) polystyrene culture tube (Fisher Scientific, Pittsburgh, Pa.) until chemical analysis could be performed.\nUsing an Agilent Technologies 5973N GC/MS, analysis was performed on undiluted solutions at 3, 6, 9, and 24 hours to evaluate the ability of S. aureus MN8 to breakdown the test compounds. Based on the analysis, the control sample, which had no test compounds added, comprised mostly acetic acid at all time intervals.\nAdditional analysis of the 6 hour and 24 hour samples was conducted by liquid chromatography. In preparation for the chromatography, the samples were diluted 10 fold with water. The dilutions were then analyzed using an ion exclusion column to achieve the separation. Detection of the compounds was accomplished through UV absorbance at 230 nm."}, "S. aureus MN8": {"test_system": "S. aureus MN8", "type": "cell-based, Staphylococcus aureus"}, "TSST-1 [3]": {"test_system": "TSST-1", "type": "cell-based, Staphylococcus aureus", "remark": "listed apart in the source"}}, "note": "Where “and” joins values, the source holds several entries; their conditions need not be identical. Equal entries are not always repeated.", "data": [{"molecule": "CC(C)CC(NC(=O)c1ccccc1)C(=O)O", "note": "(racemic) [N-benzoyl-DL-leucine, N-Benzoyl-DL-Leucine]", "values": [{"measurement": "ELISA: TSST-1 ng per mL", "setting": "TSST-1 [1]", "value": "7.9 ng per mL and 14.6 ng per mL"}, {"measurement": "liquid chromatography: evidence of breakdown to the active species", "setting": "[2]; 6 hour and 24 hour samples, UV 230 nm", "value": "breakdown to benzoic acid"}, {"measurement": "GC/MS: concentration of the dominant compound over time", "setting": "[2]", "value": "decreasing concentration over time"}, {"measurement": "GC/MS: dominant compound found in the sample", "setting": "[2]", "value": "benzoic acid as the dominant compound"}, {"measurement": "CFU/mL", "setting": "S. aureus MN8", "value": "2.23E+08 CFU/mL and 2.69E+08 CFU/mL"}]}, {"molecule": "CC(C)C(NC(=O)c1ccccc1)C(=O)O", "note": "(racemic) [N-benzoyl-DL-valine, N-Benzoyl-DL-Valine]", "values": [{"measurement": "CFU/mL", "setting": "S. aureus MN8", "value": "1.61E+08 CFU/mL and 2.07E+08 CFU/mL"}]}, {"molecule": "OCc1ccccc1", "note": "[Benzyl alcohol, benzyl alcohol]", "values": [{"measurement": "TSST-1 ng/mL", "setting": "TSST-1 [3]", "value": "2.46 ng/mL and 2.22 ng/mL and 1.33 ng/mL"}, {"measurement": "toxin production, pairwise statistical comparison", "setting": "TSST-1 [1]", "value": "significantly decreased toxin production"}, {"measurement": "GC/MS: concentration of the dominant compound over time", "setting": "[2]", "value": "decreased over time"}, {"measurement": "GC/MS: dominant compound found in the sample", "setting": "[2]", "value": "benzyl alcohol"}, {"measurement": "CFU/mL", "setting": "S. aureus MN8", "value": "5.02E+08 CFU/mL and 7.52E+08 CFU/mL"}]}, {"molecule": "CCCCCCCCCCCC(=O)OCc1ccccc1", "note": "[Benzyl laurate, Benzyl- laurate]", "values": [{"measurement": "CFU/mL", "setting": "S. aureus MN8", "value": "2.05E+08 CFU/mL and 3.05E+08 CFU/mL and 4.05E+08 CFU/mL and 3.80E+08 CFU/mL"}]}, {"molecule": "O=C(O)c1ccccc1", "note": "[benzoic acid]", "values": [{"measurement": "GC/MS: concentration of the dominant compound over time", "setting": "[2]", "value": "decreased over time"}, {"measurement": "GC/MS: dominant compound found in the sample", "setting": "[2]", "value": "benzoic acid"}]}, {"molecule": "myreth-3-myristate [Cetiol 1414E]", "values": [{"measurement": "% Reduction", "setting": "TSST-1 [1]", "value": "74% and 69% and 87%"}, {"measurement": "ELISA: TSST-1 (% inhibition)", "setting": "TSST-1 [1]", "value": "(79%)"}, {"measurement": "ELISA: TSST-1 Nanograms/mL", "setting": "TSST-1 [1]", "value": 61, "unit": "Nanograms/mL"}, {"measurement": "CFU/mL", "setting": "S. aureus MN8", "value": "1.75E+08 CFU/mL and 2.61E+08 CFU/mL and 2.48E+08 CFU/mL and 2.05E+08 CFU/mL"}, {"measurement": "CFU/mL ×10^7", "setting": "S. aureus MN8", "value": "22.5 CFU/mL ×10^7 and 25.6 CFU/mL ×10^7 and 17.4 CFU/mL ×10^7"}, {"measurement": "inhibition of the growth of S. aureus, pairwise statistical comparison", "setting": "S. aureus MN8", "value": "significantly greater inhibition of the growth of S. aureus"}]}]}
